Key:
[1] = biological target: T1, Alpha-1A adrenergic receptor (Rattus norvegicus, UniProt P43140); test: DRUGMATRIX: Alpha-1A adrenergic receptor radioligand binding (ligand: prazosin); type: cell membranes, Wistar, Submaxillary gland, Membrane; conditions: Not Active = under 50% inhibition at 10 µM
T1 sequence (P43140 whole entry): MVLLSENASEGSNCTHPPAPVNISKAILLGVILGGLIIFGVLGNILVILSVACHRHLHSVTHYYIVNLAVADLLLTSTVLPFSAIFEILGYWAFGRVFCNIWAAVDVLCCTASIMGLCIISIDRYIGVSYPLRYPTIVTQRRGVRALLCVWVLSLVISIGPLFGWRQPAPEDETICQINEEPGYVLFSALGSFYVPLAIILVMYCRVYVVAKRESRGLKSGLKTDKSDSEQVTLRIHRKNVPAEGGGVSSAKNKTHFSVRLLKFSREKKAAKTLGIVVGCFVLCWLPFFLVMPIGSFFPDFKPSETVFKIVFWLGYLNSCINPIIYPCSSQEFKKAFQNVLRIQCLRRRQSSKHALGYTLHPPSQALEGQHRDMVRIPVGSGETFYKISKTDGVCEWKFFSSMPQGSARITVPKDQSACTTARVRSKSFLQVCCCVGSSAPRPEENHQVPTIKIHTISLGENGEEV

[2] = biological target: T2, Alpha-1B adrenergic receptor (Rattus norvegicus, UniProt P15823); test: DRUGMATRIX: Alpha-1B adrenergic receptor radioligand binding (ligand: prazosin); type: cell membranes, Wistar, Liver, Membrane; conditions: Not Active = under 50% inhibition at 10 µM
T2 sequence (P15823 whole entry): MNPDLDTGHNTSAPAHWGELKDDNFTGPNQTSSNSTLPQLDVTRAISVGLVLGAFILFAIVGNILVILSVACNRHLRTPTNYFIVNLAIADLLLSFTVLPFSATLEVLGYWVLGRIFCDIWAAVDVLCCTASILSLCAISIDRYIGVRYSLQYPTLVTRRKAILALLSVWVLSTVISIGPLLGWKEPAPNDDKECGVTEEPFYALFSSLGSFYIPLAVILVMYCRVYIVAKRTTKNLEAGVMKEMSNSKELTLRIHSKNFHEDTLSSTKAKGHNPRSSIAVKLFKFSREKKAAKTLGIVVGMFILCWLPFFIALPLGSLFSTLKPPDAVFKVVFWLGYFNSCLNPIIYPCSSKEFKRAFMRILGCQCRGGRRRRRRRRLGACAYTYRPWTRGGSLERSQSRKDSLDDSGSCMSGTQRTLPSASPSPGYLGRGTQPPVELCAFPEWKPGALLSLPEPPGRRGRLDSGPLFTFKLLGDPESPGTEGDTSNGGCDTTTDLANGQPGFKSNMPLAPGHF

[3] = DRUGMATRIX: GABAA, Chloride Channel, TBOB radioligand binding (ligand: [3H] TBOB); type: cell membranes, Rattus norvegicus, Wistar, Cerebral cortex, Membrane; conditions: Not Active = under 50% inhibition at 10 µM
Glycine receptor = Glycine receptor (Rattus norvegicus, UniProt P22771+P24524+P07727+P20781); type: cell membranes, Wistar, Spinal cord, Membrane; further: in other assays of this panel Not Active means under 50% inhibition at 10 µM
[4] = biological target: Tyrosine-protein kinase Lck (Homo sapiens, UniProt P06239); test: DRUGMATRIX: Protein Tyrosine Kinase, LCK enzyme inhibition (substrate: Poly(Glu:Tyr)); type: cell-based, Insect cells; conditions: insect cells, Not Active = under 50% inhibition at 10 µM
Adenosine receptor A3 = biological target: T3, Adenosine receptor A3 (Homo sapiens, UniProt P0DMS8); type: cell membranes, CHO-K1, Membrane; conditions: cho-k1;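 further: radioligand binding assay with AB-MECA serving as the labeled ligand; in other assays of this panel Not Active means under 50% inhibition at 10 µM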
T3 sequence (P0DMS8 whole entry): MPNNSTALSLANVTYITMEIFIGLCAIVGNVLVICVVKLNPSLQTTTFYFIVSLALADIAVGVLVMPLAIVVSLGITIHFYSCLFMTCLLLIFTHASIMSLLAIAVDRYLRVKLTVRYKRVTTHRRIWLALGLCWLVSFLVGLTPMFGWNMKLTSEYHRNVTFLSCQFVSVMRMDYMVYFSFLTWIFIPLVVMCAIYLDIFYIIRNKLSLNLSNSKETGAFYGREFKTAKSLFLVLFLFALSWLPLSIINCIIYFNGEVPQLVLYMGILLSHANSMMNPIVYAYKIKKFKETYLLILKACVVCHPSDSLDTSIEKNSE

Tyrosine-protein kinase Lck, sequence (P06239 whole entry): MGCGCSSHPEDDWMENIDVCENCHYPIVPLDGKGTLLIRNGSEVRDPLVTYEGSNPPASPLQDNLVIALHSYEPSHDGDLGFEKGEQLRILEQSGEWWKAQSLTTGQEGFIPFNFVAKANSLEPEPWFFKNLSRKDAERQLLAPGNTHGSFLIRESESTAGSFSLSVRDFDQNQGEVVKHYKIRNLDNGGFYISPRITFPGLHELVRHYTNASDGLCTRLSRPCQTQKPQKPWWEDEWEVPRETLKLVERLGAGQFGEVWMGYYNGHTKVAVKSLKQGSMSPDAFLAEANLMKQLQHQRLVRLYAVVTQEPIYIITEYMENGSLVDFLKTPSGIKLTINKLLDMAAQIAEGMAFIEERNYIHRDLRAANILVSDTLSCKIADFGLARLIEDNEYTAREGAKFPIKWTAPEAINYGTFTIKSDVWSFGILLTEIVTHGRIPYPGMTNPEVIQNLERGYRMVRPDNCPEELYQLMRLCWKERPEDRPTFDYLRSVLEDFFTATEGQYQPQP

CC(C)C(=O)Nc1ccc([N+](=O)[O-])c(C(F)(F)F)c1 [FLUTAMIDE]
Not Active: IC50 [1] | IC50 [2] | IC50 [3] | Ki [3] | IC50 (Glycine receptor) | IC50 [4] | IC50 (Adenosine receptor A3)

N=C(N)NCCN1CCCCCCC1 [GUANETHIDINE]
Not Active: IC50 [1] | IC50 [2] | IC50 [3] | Ki [3] | IC50 (Glycine receptor) | IC50 [4] | IC50 (Adenosine receptor A3)

CC1(C)O[C@@H]2C[C@H]3[C@@H]4CCC5=CC(=O)CC[C@]5(C)[C@@]4(F)[C@@H](O)C[C@]3(C)[C@]2(C(=O)CCl)O1 [HALCINONIDE]
Not Active: IC50 [1] | IC50 [2] | IC50 [3] | Ki [3] | IC50 (Glycine receptor) | IC50 [4] | IC50 (Adenosine receptor A3)

O=c1[nH]c(=O)n([C@H]2C[C@H](O)[C@@H](CO)O2)cc1I [IDOXURIDINE]
Not Active: IC50 [1] | IC50 [2] | IC50 [3] | Ki [3] | IC50 (Glycine receptor) | IC50 [4] | IC50 (Adenosine receptor A3)

CC1Cc2ccccc2N1NC(=O)c1ccc(Cl)c(S(N)(=O)=O)c1 (configuration not stated) [INDAPAMIDE]
Not Active: IC50 [1] | IC50 [2] | IC50 [3] | Ki [3] | IC50 (Glycine receptor) | IC50 [4] | IC50 (Adenosine receptor A3)

Nc1nc(N)nc(-c2cc(Cl)ccc2Cl)n1.O=C(O)/C=C\C(=O)O [IRSOGLADINE MALEATE]
Not Active: IC50 [1] | IC50 [2] | IC50 [3] | Ki [3] | IC50 (Glycine receptor) | IC50 [4] | IC50 (Adenosine receptor A3)

CCC(C)n1ncn(-c2ccc(N3CCN(c4ccc(OCC5COC(Cn6cncn6)(c6ccc(Cl)cc6Cl)O5)cc4)CC3)cc2)c1=O (configuration not stated) [ITRACONAZOLE]
Not Active: IC50 [1] | IC50 [2] | IC50 [3] | Ki [3] | IC50 (Glycine receptor) | IC50 [4] | IC50 (Adenosine receptor A3)

CCCCN1CCCC[C@H]1C(=O)Nc1c(C)cccc1C [LEVOBUPIVACAINE]
Not Active: IC50 [1] | IC50 [2] | IC50 [3] | Ki [3] | IC50 (Glycine receptor) | IC50 [4] | IC50 (Adenosine receptor A3)

CCCCc1nc(Cl)c(CO)n1Cc1ccc(-c2ccccc2-c2nnn[nH]2)cc1 [LOSARTAN]
Not Active: IC50 [1] | IC50 [2] | IC50 [3] | Ki [3] | IC50 (Glycine receptor) | IC50 [4] | IC50 (Adenosine receptor A3)

Sc1ncnc2nc[nH]c12 [MERCAPTOPURINE ANHYDROUS]
Not Active: IC50 [1] | IC50 [2] | IC50 [3] | Ki [3] | IC50 (Glycine receptor) | IC50 [4] | IC50 (Adenosine receptor A3)

C[C@](N)(Cc1ccc(O)c(O)c1)C(=O)O [METHYLDOPA]
Not Active: IC50 [1] | IC50 [2] | IC50 [3] | Ki [3] | IC50 (Glycine receptor) | IC50 [4] | IC50 (Adenosine receptor A3)

C[C@]12CCC(=O)C=C1CC[C@@H]1[C@@H]2CC[C@@]2(C)[C@H]1CC[C@]2(C)O [METHYLTESTOSTERONE]
Not Active: IC50 [1] | IC50 [2] | IC50 [3] | Ki [3] | IC50 (Glycine receptor) | IC50 [4] | IC50 (Adenosine receptor A3)

Cc1ccccc1N1C(=O)c2cc(S(N)(=O)=O)c(Cl)cc2NC1C (configuration not stated) [METOLAZONE]
Not Active: IC50 [1] | IC50 [2] | IC50 [3] | Ki [3] | IC50 (Glycine receptor) | IC50 [4] | IC50 (Adenosine receptor A3)

COCCc1ccc(OCC(O)CNC(C)C)cc1 (configuration not stated) [METOPROLOL]
Not Active: IC50 [1] | IC50 [2] | IC50 [3] | Ki [3] | IC50 (Glycine receptor) | IC50 [4] | IC50 (Adenosine receptor A3)

CCn1cc(C(=O)O)c(=O)c2cc(F)c(N3CCNCC3)cc21 [NORFLOXACIN]
Not Active: IC50 [1] | IC50 [2] | IC50 [3] | Ki [3] | IC50 (Glycine receptor) | IC50 [4] | IC50 (Adenosine receptor A3)

NC1=NC(=O)C(c2ccccc2)O1 (configuration not stated) [PEMOLINE]
Not Active: IC50 [1] | IC50 [2] | IC50 [3] | Ki [3] | IC50 (Glycine receptor) | IC50 [4] | IC50 (Adenosine receptor A3)

Nc1nc2c(ncn2CCC(CO)CO)c(=O)[nH]1 [PENCICLOVIR]
Not Active: IC50 [1] | IC50 [2] | IC50 [3] | Ki [3] | IC50 (Glycine receptor) | IC50 [4] | IC50 (Adenosine receptor A3)

C=C(C)C1(O)OC(=O)C=C1OC (configuration not stated) [PENICILLIC ACID]
Not Active: IC50 [1] | IC50 [2] | IC50 [3] | Ki [3] | IC50 (Glycine receptor) | IC50 [4] | IC50 (Adenosine receptor A3)

CC1(C)S[C@@H]2[C@H](NC(=O)Cc3ccccc3)C(=O)N2[C@H]1C(=O)O [PENICILLIN G]
Not Active: IC50 [1] | IC50 [2] | IC50 [3] | Ki [3] | IC50 (Glycine receptor) | IC50 [4] | IC50 (Adenosine receptor A3)

CCCN1C[C@H](CSC)C[C@@H]2c3cccc4[nH]cc(c34)C[C@H]21 [PERGOLIDE]
1930 nM: IC50 ([1]; read-out: IC50)
Not Active: IC50 [3] | Ki [3] | IC50 (Glycine receptor) | IC50 [4] | IC50 (Adenosine receptor A3)
781 nM: Ki ([1]; read-out: Ki)
2620 nM: IC50 ([2]; read-out: IC50)
1450 nM: Ki ([2]; read-out: Ki)

C1CCC(C(CC2CCCCN2)C2CCCCC2)CC1 (configuration not stated) [PERHEXILINE]
Not Active: IC50 [1] | IC50 [2] | IC50 [3] | Ki [3] | IC50 (Glycine receptor) | IC50 [4] | IC50 (Adenosine receptor A3)

CCOc1ccc(NC(C)=O)cc1 [PHENACETIN]
Not Active: IC50 [1] | IC50 [2] | IC50 [3] | Ki [3] | IC50 (Glycine receptor) | IC50 [4] | IC50 (Adenosine receptor A3)

CNNCc1ccc(C(=O)NC(C)C)cc1 [PROCARBAZINE]
Not Active: IC50 [1] | IC50 [2] | IC50 [3] | Ki [3] | IC50 (Glycine receptor) | IC50 [4] | IC50 (Adenosine receptor A3)

CN(C)CCCN1c2ccccc2Sc2ccccc21 [PROMAZINE]
9.24 nM: IC50 ([1]; read-out: IC50)
4.53 nM: Ki ([2]; read-out: Ki)
8.19 nM: IC50 ([2]; read-out: IC50)
3.74 nM: Ki ([1]; read-out: Ki)
Not Active: IC50 [3] | Ki [3] | IC50 (Glycine receptor) | IC50 [4] | IC50 (Adenosine receptor A3)

CC(O)CO (configuration not stated) [PROPYLENE GLYCOL]
Not Active: IC50 [1] | IC50 [2] | IC50 [3] | Ki [3] | IC50 (Glycine receptor) | IC50 [4] | IC50 (Adenosine receptor A3)

LEAD (II) ACETATE
Not Active: IC50 [1] | Ki [1] | IC50 [2] | Ki [2] | IC50 [3] | Ki [3] | IC50 (Glycine receptor) | Ki (Glycine receptor) | IC50 [4] | Ki [4] | IC50 (Adenosine receptor A3) | Ki (Adenosine receptor A3)

LIPOPOLYSACCHARIDE E. COLI O55:B5
294 nM: IC50 ([4]; read-out: IC50)
Not Active: IC50 [1] | Ki [1] | IC50 [2] | Ki [2] | IC50 [3] | Ki [3] | IC50 (Glycine receptor) | Ki (Glycine receptor) | IC50 (Adenosine receptor A3) | Ki (Adenosine receptor A3)

— ChEMBL document CHEMBL1909046, “DrugMatrix in vitro pharmacology data”
